In brackets after ≈: the same amount, converted by molar mass.

This is an account of results in US8329674B2, “Film forming dental compositions and related methods” (3M Innovative Properties Company, priority 2007, dated 2012).

What all share (assay): Minimum Inhibitory Concentration (MIC) Test
What all share (assay type): cell-based

Assay [1] concerns Staphylococcus aureus (strain ATCC 6538). Particulars: S. aureus; compound emulsified in water with PLURONIC F68; 24 hours at 37° C.; none = no inhibitory activity noted. As to the method:
(§1) The MIC Test was carried out using successively lower concentrations of compounds. Sterile tryptic soy broth (50 microliters; TSB, available from BD Dfico, Becton, Dickinson and Company, Franklin Lakes, N.J.) was deposited into each well of a sterile polystyrene 96-well microtitcr plate. Into each well in the first (leftmost) column of the plate, there was then deposited a 50 microliter aliquot (of known concentration) of a compound (i.e., a compound of Formula I, or a pharmaceutically acceptable salt thereof, or comparative compound). A 50 microliter aliquot of the mixture in the first (leftmost) well in the first row of the plate was transferred to the second well in the first row. A 50 microliter aliquot of the mixture in the second well in the first row was then transferred to the third well in the first row. The compound was successively diluted (1:1 dilution at each step) by transferring a 50 microliter aliquot from one well into the next well, across the row of the plate. This procedure was repeated for each row of the plate. Then, an overnight culture of Streptococcus mutans (strain ATCC 25175) was diluted 1:100 into sterile tryptic soy broth. A 50 microliter aliquot of the diluted S. mutans culture (10^5 CFU) was deposited into each well of the microtiter plate. The plate was then incubated at 37° C. for 24 hours in a sealed humidified chamber. The plate was then visually inspected to determine the lowest concentration of compound at which no bacterial growth was visible. This value was considered to be the minimum inhibitory concentration (MIC) for the compound. The test was repeated using Staphylococcus aureus (strain ATCC 6538) and Pseudomonas aeruginosa (strain ATCC 9027) in place of S. mutans.
(§2) A sample of each of N-dodecanoyl-D-glucosamine, N-tetradecanoyl-D-glucosamine, and N-hexadecanoyl-D-glucosamine (0.100 g each) was emulsified in water (10 g) using a nonionic surfactant (0.9 g; PLURONIC F68, available from BASF Corp., Mount Olive, N.J.). A control sample was made by combining the nonionic surfactant (0.9 g) and water (10 g). Each of the four samples was evaluated using the Minimum Inhibitory Concentration (MIC) Test described above with S. mutans, S. aureus, and P. aeruginosa. In Table 5, “F68” refers to the nonionic surfactant used in the Comparative Examples, and “none” means that no inhibitory activity was noted.

Assay [2] relates to Pseudomonas aeruginosa (strain ATCC 9027). Particulars: P. aeruginosa; compound emulsified in water with PLURONIC F68; 24 hours at 37° C.; none = no inhibitory activity noted. How it is done:
as §1, §2

In assay [3] the test system is Streptococcus mutans (strain ATCC 25175). Particulars: ATCC25175, S. mutans, compound emulsified in water with PLURONIC F68, 24 hours at 37° C., none = no inhibitory activity noted. As to the method: as §1, §2

Usually MIC stands for the lowest concentration that inhibits growth of the organism. A low value points to greater potency. For the compound `CCCCCCCCCCCC(=O)N[C@H]1C(O)O[C@H](CO)[C@@H](O)[C@@H]1O` (stereo partly drawn) [N-dodecanoyl-D-glucosamine], the minimum inhibitory concentration (MIC) result was “None” in assay [1], “None” in assay [2] and 78 µg/mL (≈ 216 µM) in assay [3].
Consider `CCCCCCCCCCCCCCCC(=O)N[C@H]1C(O)O[C@H](CO)[C@@H](O)[C@@H]1O` (stereo partly drawn) [N-hexadecanoyl-D-glucosamine], for which the MIC result in assay [1] is “None”; in assay [2], “None”; in assay [3], 39 µg/mL (≈ 93.4 µM).
As for `CCCCCCCCCCCCCC(=O)N[C@H]1C(O)O[C@H](CO)[C@@H](O)[C@@H]1O` (stereo partly drawn) [N-tetradecanoyl-D-glucosamine], the results for the MIC result in assay [1], in assay [2] and in assay [3] were “None”, “None” and 78 µg/mL (≈ 200 µM), respectively.
